“And” between values parts separate entries of the source, which are not always exact repeats. Equal values may be shown once.
Target: T1, Cholesteryl ester transfer protein (Homo sapiens, UniProt P11597)
T1 sequence (P11597 whole entry): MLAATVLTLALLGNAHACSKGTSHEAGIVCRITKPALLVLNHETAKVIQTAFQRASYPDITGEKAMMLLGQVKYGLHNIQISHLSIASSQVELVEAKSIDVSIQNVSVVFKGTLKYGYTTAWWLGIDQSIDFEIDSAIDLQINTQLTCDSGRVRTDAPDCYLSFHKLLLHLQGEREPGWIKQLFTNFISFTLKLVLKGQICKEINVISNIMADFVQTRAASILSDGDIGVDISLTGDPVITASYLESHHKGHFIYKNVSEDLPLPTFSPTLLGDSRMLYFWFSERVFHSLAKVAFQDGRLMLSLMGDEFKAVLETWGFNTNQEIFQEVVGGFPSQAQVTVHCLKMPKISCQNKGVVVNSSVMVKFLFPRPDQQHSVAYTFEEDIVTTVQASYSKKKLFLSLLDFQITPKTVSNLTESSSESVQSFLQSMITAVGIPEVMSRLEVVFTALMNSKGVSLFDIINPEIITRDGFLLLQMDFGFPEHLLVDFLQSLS
Experiment: CETP Inhibition Assay: A recombinant human CETP protein (manufactured by Roar Biomedical Inc.; 4.5 ng), the acceptor lipoprotein described in (2) above (32.5 μg) and 5,5'-dithio-bis-(2-nitrobenzoic acid) (7 mM, 15 μl) were taken in a 96 well plate and the total amount of the mixture was adjusted to 48.5 μl with the PBS solution. The test compound [DMSO solution (concentration: 0.15, 0.5, 1.5, 5, 15, 50, 150 and 500 μM); 1.5 μl] was added to each well and the mixture was incubated in a thermostatic bath at 37 °C. for 60 minutes. The reconstituted HDL (50 μl) described in (1) above was added to each well and the mixture was reacted in a thermostatic bath at 37 °C. for 60 minutes. The 96 well plate was moved onto ice and a precipitation reagent [a mixed solution of magnesium chloride (60 mM) and 0.1% dextran sulfate[1/1(v/v)]; 15 μl] was added to each well, and then the mixture was allowed to stand on ice for 15 minutes. The reaction solution (80 μl) in each well was moved to a filter plate and centrifuged at 1500 rpm for 1 minute, and the filtrate which passed through the filter was designated as the HDL fraction and the radioactivity thereof was measured with a scintillation counter.

`CC(C)(O)CCOc1cnc(N2CCC(c3nc4c(c(C5CCC(F)(F)CC5)c3[C@@H](F)c3ccc(C(F)(F)F)cc3)[C@@H](O)CC(C)(C)C4)CC2)nc1` was tested, and the IC50 was 17.8 nM and 21.3 nM.

Reference: ChEMBL document CHEMBL3886662, “Acid addition salt of substituted pyridine compound” (2016)
